Data published in US7118895B2, “Process for producing aglycon by using diglycosidase and flavor-improved food containing the aglycon and converting agent to be used in the process” (Amano Enzyme Inc., priority 2000, dated 2006).

Test system: Crude diglycosidase
Assay: Examination of pH in the conversion into isoflavone aglycons by diglycosidase using soybean materials
Format: biochemical, Penicillium multicolor IAM7153
Design: Decomposition efficiency of genistin family in soymilk / Decomposition efficiency of genistin family in defatted soybean / Decomposition efficiency of daidzin family in defatted soybean: concentration or dose not given beside the values
Settings: for Decomposition efficiency of genistin family in roasted soy flour: 55° C.
How it was run: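 Each soybean material (50 mg) is suspended and set to a pH between 2 and 11. Crude diglycosidase, adjusted to 1.88 AU/mL in enzyme solution of the same pH, is added, and the mixture is incubated at 55° C. Ethanol is added at 0, 1, 3 and 6 h, then supernatants go to HPLC.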

[1] = pH4.8, heat treatment of enzyme: no, reaction time 0 h
[2] = pH4.8, heat treatment of enzyme: no, reaction time 1 h
[3] = pH4.8, heat treatment of enzyme: no, reaction time 3 h
[4] = pH4.8, heat treatment of enzyme: no, reaction time 6 h
[5] = pH4.8, heat treatment of enzyme: yes, reaction time 6 h
[6] = pH6.6, heat treatment of enzyme: no, reaction time 0 h
[7] = pH6.6, heat treatment of enzyme: no, reaction time 1 h
[8] = pH6.6, heat treatment of enzyme: no, reaction time 3 h
[9] = pH6.6, heat treatment of enzyme: no, reaction time 6 h
[10] = pH6.6, heat treatment of enzyme: yes, reaction time 6 h

SMILES: O=C(O)CC(=O)OC[C@H]1O[C@@H](Oc2cc(O)c3c(=O)c(-c4ccc(O)cc4)coc3c2)[C@H](O)[C@@H](O)[C@@H]1O [malonylgenistin, 6″-O-malonylgenistin]
- Decomposition efficiency of genistin family in concentrated soybean protein (pH1.6, heat treatment of enzyme: no, reaction time 0 h): not detected
- Decomposition efficiency of genistin family in concentrated soybean protein (pH1.6, heat treatment of enzyme: no, reaction time 1 h): not detected
- Decomposition efficiency of genistin family in concentrated soybean protein (pH1.6, heat treatment of enzyme: no, reaction time 3 h): not detected
- Decomposition efficiency of genistin family in concentrated soybean protein (pH1.6, heat treatment of enzyme: no, reaction time 6 h): not detected
- Decomposition efficiency of genistin family in concentrated soybean protein (pH1.6, heat treatment of enzyme: yes, reaction time 6 h): not detected
- Decomposition efficiency of genistin family in roasted soy flour (pH2, heat treatment of enzyme no, reaction time 0 h): not detected
- Decomposition efficiency of genistin family in roasted soy flour (pH2, heat treatment of enzyme no, reaction time 1 h): not detected
- Decomposition efficiency of genistin family in roasted soy flour (pH2, heat treatment of enzyme no, reaction time 3 h): not detected
- Decomposition efficiency of genistin family in roasted soy flour (pH2, heat treatment of enzyme no, reaction time 6 h): not detected
- Decomposition efficiency of genistin family in roasted soy flour (pH2, heat treatment of enzyme yes, reaction time 6 h): not detected
- Decomposition efficiency of genistin family in soymilk (pH2.3, heat treatment of enzyme: no, reaction time 0 h): 58.2%
- Decomposition efficiency of genistin family in soymilk (pH2.3, heat treatment of enzyme: no, reaction time 1 h): 57.5%
- Decomposition efficiency of genistin family in soymilk (pH2.3, heat treatment of enzyme: no, reaction time 3 h): 54.1%
- Decomposition efficiency of genistin family in soymilk (pH2.3, heat treatment of enzyme: no, reaction time 6 h): 52.1%
- Decomposition efficiency of genistin family in soymilk (pH2.3, heat treatment of enzyme: yes, reaction time 6 h): 54.3%
- Decomposition efficiency of genistin family in defatted soybean (pH2.6, heat treatment of enzyme: no, reaction time 0 h): 43.8%
- Decomposition efficiency of genistin family in defatted soybean (pH2.6, heat treatment of enzyme: no, reaction time 1 h): 44.4%
- Decomposition efficiency of genistin family in defatted soybean (pH2.6, heat treatment of enzyme: no, reaction time 3 h): 45.4%
- Decomposition efficiency of genistin family in defatted soybean (pH2.6, heat treatment of enzyme: no, reaction time 6 h): 43.5%
- Decomposition efficiency of genistin family in defatted soybean (pH2.6, heat treatment of enzyme: yes, reaction time 6 h): 42.0%
- Decomposition efficiency of genistin family in concentrated soybean protein (pH2.7, heat treatment of enzyme: no, reaction time 0 h): not detected
- Decomposition efficiency of genistin family in concentrated soybean protein (pH2.7, heat treatment of enzyme: no, reaction time 1 h): not detected
- Decomposition efficiency of genistin family in concentrated soybean protein (pH2.7, heat treatment of enzyme: no, reaction time 3 h): not detected
- Decomposition efficiency of genistin family in concentrated soybean protein (pH2.7, heat treatment of enzyme: no, reaction time 6 h): not detected
- Decomposition efficiency of genistin family in concentrated soybean protein (pH2.7, heat treatment of enzyme: yes, reaction time 6 h): not detected
- Decomposition efficiency of genistin family in roasted soy flour (pH3, heat treatment of enzyme no, reaction time 0 h): not detected
- Decomposition efficiency of genistin family in roasted soy flour (pH3, heat treatment of enzyme no, reaction time 1 h): not detected
- Decomposition efficiency of genistin family in roasted soy flour (pH3, heat treatment of enzyme no, reaction time 3 h): not detected
- Decomposition efficiency of genistin family in roasted soy flour (pH3, heat treatment of enzyme no, reaction time 6 h): not detected
- Decomposition efficiency of genistin family in roasted soy flour (pH3, heat treatment of enzyme yes, reaction time 6 h): not detected
- Decomposition efficiency of genistin family in defatted soybean (pH3.4, heat treatment of enzyme: no, reaction time 0 h): 43.8%
- Decomposition efficiency of genistin family in defatted soybean (pH3.4, heat treatment of enzyme: no, reaction time 1 h): 41.6%
- Decomposition efficiency of genistin family in defatted soybean (pH3.4, heat treatment of enzyme: no, reaction time 3 h): 36.4%
- Decomposition efficiency of genistin family in defatted soybean (pH3.4, heat treatment of enzyme: no, reaction time 6 h): 30.4%
- Decomposition efficiency of genistin family in defatted soybean (pH3.4, heat treatment of enzyme: yes, reaction time 6 h): 39.8%
- Decomposition efficiency of genistin family in soymilk (pH3.5, heat treatment of enzyme: no, reaction time 0 h): 58.2%
- Decomposition efficiency of genistin family in soymilk (pH3.5, heat treatment of enzyme: no, reaction time 1 h): 27.9%
- Decomposition efficiency of genistin family in soymilk (pH3.5, heat treatment of enzyme: no, reaction time 3 h): 7.5%
- Decomposition efficiency of genistin family in soymilk (pH3.5, heat treatment of enzyme: no, reaction time 6 h): 2.7%
- Decomposition efficiency of genistin family in soymilk (pH3.5, heat treatment of enzyme: yes, reaction time 6 h): 52.7%
- Decomposition efficiency of genistin family in concentrated soybean protein (pH3.7, heat treatment of enzyme: no, reaction time 0 h): not detected
- Decomposition efficiency of genistin family in concentrated soybean protein (pH3.7, heat treatment of enzyme: no, reaction time 1 h): not detected
- Decomposition efficiency of genistin family in concentrated soybean protein (pH3.7, heat treatment of enzyme: no, reaction time 3 h): not detected
- Decomposition efficiency of genistin family in concentrated soybean protein (pH3.7, heat treatment of enzyme: no, reaction time 6 h): not detected
- Decomposition efficiency of genistin family in concentrated soybean protein (pH3.7, heat treatment of enzyme: yes, reaction time 6 h): not detected
- Decomposition efficiency of genistin family in roasted soy flour (pH4, heat treatment of enzyme no, reaction time 0 h): not detected
- Decomposition efficiency of genistin family in roasted soy flour (pH4, heat treatment of enzyme no, reaction time 1 h): not detected
- Decomposition efficiency of genistin family in roasted soy flour (pH4, heat treatment of enzyme no, reaction time 3 h): not detected
- Decomposition efficiency of genistin family in roasted soy flour (pH4, heat treatment of enzyme no, reaction time 6 h): not detected
- Decomposition efficiency of genistin family in roasted soy flour (pH4, heat treatment of enzyme yes, reaction time 6 h): not detected
- Decomposition efficiency of genistin family in defatted soybean [1]: 43.2%
- Decomposition efficiency of genistin family in soymilk [1]: 58.6%
- Decomposition efficiency of genistin family in defatted soybean [2]: 42.8%
- Decomposition efficiency of genistin family in soymilk [2]: 41.0%
- Decomposition efficiency of genistin family in defatted soybean [3]: 37.5%
- Decomposition efficiency of genistin family in soymilk [3]: 23.9%
- Decomposition efficiency of genistin family in defatted soybean [4]: 31.1%
- Decomposition efficiency of genistin family in soymilk [4]: 11.3%
- Decomposition efficiency of genistin family in defatted soybean [5]: 41.7%
- Decomposition efficiency of genistin family in soymilk [5]: 51.9%
- Decomposition efficiency of genistin family in roasted soy flour (pH5, heat treatment of enzyme no, reaction time 0 h): not detected
- Decomposition efficiency of genistin family in roasted soy flour (pH5, heat treatment of enzyme no, reaction time 1 h): not detected
- Decomposition efficiency of genistin family in roasted soy flour (pH5, heat treatment of enzyme no, reaction time 3 h): not detected
- Decomposition efficiency of genistin family in roasted soy flour (pH5, heat treatment of enzyme no, reaction time 6 h): not detected
- Decomposition efficiency of genistin family in roasted soy flour (pH5, heat treatment of enzyme yes, reaction time 6 h): not detected
- Decomposition efficiency of genistin family in concentrated soybean protein (pH5.1, heat treatment of enzyme: no, reaction time 0 h): not detected
- Decomposition efficiency of genistin family in concentrated soybean protein (pH5.1, heat treatment of enzyme: no, reaction time 1 h): not detected
- Decomposition efficiency of genistin family in concentrated soybean protein (pH5.1, heat treatment of enzyme: no, reaction time 3 h): not detected
- Decomposition efficiency of genistin family in concentrated soybean protein (pH5.1, heat treatment of enzyme: no, reaction time 6 h): not detected
- Decomposition efficiency of genistin family in concentrated soybean protein (pH5.1, heat treatment of enzyme: yes, reaction time 6 h): not detected
- Decomposition efficiency of genistin family in defatted soybean (pH5.4, heat treatment of enzyme: no, reaction time 0 h): 43.2%
- Decomposition efficiency of genistin family in defatted soybean (pH5.4, heat treatment of enzyme: no, reaction time 1 h): 48.0%
- Decomposition efficiency of genistin family in defatted soybean (pH5.4, heat treatment of enzyme: no, reaction time 3 h): 44.6%
- Decomposition efficiency of genistin family in defatted soybean (pH5.4, heat treatment of enzyme: no, reaction time 6 h): 39.7%
- Decomposition efficiency of genistin family in defatted soybean (pH5.4, heat treatment of enzyme: yes, reaction time 6 h): 45.8%
- Decomposition efficiency of genistin family in soymilk (pH6.2, heat treatment of enzyme: no, reaction time 0 h): 58.6%
- Decomposition efficiency of genistin family in soymilk (pH6.2, heat treatment of enzyme: no, reaction time 1 h): 52.6%
- Decomposition efficiency of genistin family in soymilk (pH6.2, heat treatment of enzyme: no, reaction time 3 h): 41.2%
- Decomposition efficiency of genistin family in soymilk (pH6.2, heat treatment of enzyme: no, reaction time 6 h): 35.8%
- Decomposition efficiency of genistin family in soymilk (pH6.2, heat treatment of enzyme: yes, reaction time 6 h): 51.5%
- Decomposition efficiency of genistin family in roasted soy flour (pH6.5, heat treatment of enzyme no, reaction time 0 h): not detected
- Decomposition efficiency of genistin family in roasted soy flour (pH6.5, heat treatment of enzyme no, reaction time 1 h): not detected
- Decomposition efficiency of genistin family in roasted soy flour (pH6.5, heat treatment of enzyme no, reaction time 3 h): not detected
- Decomposition efficiency of genistin family in roasted soy flour (pH6.5, heat treatment of enzyme no, reaction time 6 h): not detected
- Decomposition efficiency of genistin family in roasted soy flour (pH6.5, heat treatment of enzyme yes, reaction time 6 h): not detected
- Decomposition efficiency of genistin family in concentrated soybean protein [6]: not detected
- Decomposition efficiency of genistin family in defatted soybean [6]: 47.1%
- Decomposition efficiency of genistin family in concentrated soybean protein [7]: not detected
- Decomposition efficiency of genistin family in defatted soybean [7]: 50.1%
- Decomposition efficiency of genistin family in concentrated soybean protein [8]: not detected
- Decomposition efficiency of genistin family in defatted soybean [8]: 48.3%
- Decomposition efficiency of genistin family in concentrated soybean protein [9]: not detected
- Decomposition efficiency of genistin family in defatted soybean [9]: 46.1%
- Decomposition efficiency of genistin family in concentrated soybean protein [10]: not detected
- Decomposition efficiency of genistin family in defatted soybean [10]: 45.7%
- Decomposition efficiency of genistin family in soymilk (pH7.2, heat treatment of enzyme: no, reaction time 0 h): 57.0%
- Decomposition efficiency of genistin family in soymilk (pH7.2, heat treatment of enzyme: no, reaction time 1 h): 56.9%
- Decomposition efficiency of genistin family in soymilk (pH7.2, heat treatment of enzyme: no, reaction time 3 h): 51.5%
- Decomposition efficiency of genistin family in soymilk (pH7.2, heat treatment of enzyme: no, reaction time 6 h): 46.4%
- Decomposition efficiency of genistin family in soymilk (pH7.2, heat treatment of enzyme: yes, reaction time 6 h): 51.1%
- Decomposition efficiency of genistin family in defatted soybean (pH7.8, heat treatment of enzyme: no, reaction time 0 h): 45.8%
- Decomposition efficiency of genistin family in defatted soybean (pH7.8, heat treatment of enzyme: no, reaction time 1 h): 46.6%
- Decomposition efficiency of genistin family in defatted soybean (pH7.8, heat treatment of enzyme: no, reaction time 3 h): 44.4%
- Decomposition efficiency of genistin family in defatted soybean (pH7.8, heat treatment of enzyme: no, reaction time 6 h): 42.2%
- Decomposition efficiency of genistin family in defatted soybean (pH7.8, heat treatment of enzyme: yes, reaction time 6 h): 39.9%
- Decomposition efficiency of genistin family in roasted soy flour (pH8.5, heat treatment of enzyme no, reaction time 0 h): not detected
- Decomposition efficiency of genistin family in roasted soy flour (pH8.5, heat treatment of enzyme no, reaction time 1 h): not detected
- Decomposition efficiency of genistin family in roasted soy flour (pH8.5, heat treatment of enzyme no, reaction time 3 h): not detected
- Decomposition efficiency of genistin family in roasted soy flour (pH8.5, heat treatment of enzyme no, reaction time 6 h): not detected
- Decomposition efficiency of genistin family in roasted soy flour (pH8.5, heat treatment of enzyme yes, reaction time 6 h): not detected
- Decomposition efficiency of genistin family in concentrated soybean protein (pH8.6, heat treatment of enzyme: no, reaction time 0 h): not detected
- Decomposition efficiency of genistin family in concentrated soybean protein (pH8.6, heat treatment of enzyme: no, reaction time 1 h): not detected
- Decomposition efficiency of genistin family in concentrated soybean protein (pH8.6, heat treatment of enzyme: no, reaction time 3 h): not detected
- Decomposition efficiency of genistin family in concentrated soybean protein (pH8.6, heat treatment of enzyme: no, reaction time 6 h): not detected
- Decomposition efficiency of genistin family in concentrated soybean protein (pH8.6, heat treatment of enzyme: yes, reaction time 6 h): not detected
- Decomposition efficiency of genistin family in soymilk (pH11.6, heat treatment of enzyme: no, reaction time 0 h): 54.2%
- Decomposition efficiency of genistin family in soymilk (pH11.6, heat treatment of enzyme: no, reaction time 1 h): 57.7%
- Decomposition efficiency of genistin family in soymilk (pH11.6, heat treatment of enzyme: no, reaction time 3 h): 52.6%
- Decomposition efficiency of genistin family in soymilk (pH11.6, heat treatment of enzyme: no, reaction time 6 h): 49.5%
- Decomposition efficiency of genistin family in soymilk (pH11.6, heat treatment of enzyme: yes, reaction time 6 h): 47.7%
